From PubChem BioAssay (NCI)
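96-well plates; 48 h exposure; 5 concentrations. Endpoints by linear interpolation between flanking doses. Not reached: highest tested concentration assigned. TGI denotes the concentration required for complete inhibition of growth.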

Columns and labels:
Assay in all cases: DTP human tumour cell line panel, 48 h
K-562 leukemia = tested on: K-562 leukemia
NCI-H522 lung = tested on: NCI-H522 lung
KM12 colon = tested on: KM12 colon
SN12C renal = tested on: SN12C renal
HS 578T breast = tested on: HS 578T breast
OVCAR-4 ovarian = tested on: OVCAR-4 ovarian
SNB-19 CNS = tested on: SNB-19 CNS
UACC-62 melanoma = tested on: UACC-62 melanoma
786-0 renal = tested on: 786-0 renal
OVCAR-3 ovarian = tested on: OVCAR-3 ovarian

Structure (SMILES)	TGI (K-562 leukemia)	TGI (NCI-H522 lung)	TGI (KM12 colon)	TGI (SN12C renal)	TGI (HS 578T breast)	TGI (OVCAR-4 ovarian)	TGI (SNB-19 CNS)	TGI (UACC-62 melanoma)	TGI (786-0 renal)	TGI (OVCAR-3 ovarian)
CC(=O)NC1=CC(=O)c2cc(C)cc(O)c2C1=O	14.7 µM	20.2 µM	33.4 µM	14.2 µM	> 84.5 µM	20.4 µM	> 62.7 µM	4.71 µM	27.3 µM	8.37 µM
CC(C)C(C/C=C1\CC(CO)(COC(=O)CC(C(C)C)C(C)C)OC1=O)C(C)C (stereo not given)	19.6 µM	27.6 µM	28.6 µM	22.1 µM	15.8 µM	33 µM	26.5 µM	29 µM	21.1 µM	30.6 µM
CC(C)(C)OC(=O)NCC(=O)N1CCCN(C(=O)CNC(=O)OC(C)(C)C)CC1	> 100 µM	> 100 µM	> 100 µM	> 100 µM	> 100 µM	> 100 µM	> 100 µM	> 100 µM	> 100 µM	> 100 µM
Nc1nc2cc(CNc3ccc(C(=O)NC(CCC(=O)O)C(=O)O)cc3)ccc2nc1-c1ccccc1 (stereo not given)	> 10 µM	> 10 µM	> 10 µM	> 10 µM	> 10 µM	> 10 µM	> 10 µM	> 10 µM	> 10 µM	> 10 µM
CN(C)CCOC1(CC2CCCCC2)CCC(C(C)(C)C)CC1 (stereo not given)	5.93 µM	8.49 µM	14.4 µM	20.6 µM	23.4 µM	19.8 µM	21.9 µM	20.3 µM	5.91 µM	18.4 µM
CC(C)(C)c1cc(C2COC(=O)COCC(=O)OCCOCCOCCO2)cc(C(C)(C)C)c1O (stereo not given)	> 100 µM	> 100 µM	> 100 µM	20.8 µM	45.8 µM	> 100 µM	> 100 µM	> 69.1 µM	43.3 µM	> 100 µM
CCOC(=O)C(NCc1cccc(C(F)(F)F)c1)(NC(=O)c1ccccc1)C(F)(F)F (stereo not given)	> 100 µM	50.4 µM	> 100 µM	> 100 µM	> 100 µM	> 100 µM	> 100 µM	30.9 µM	79.5 µM	82 µM
Cc1cccc2c1C/C(=C\c1cccc(C)c1C(=O)O)C2=O	> 100 µM	> 100 µM	> 100 µM	> 100 µM	> 100 µM	> 100 µM	> 100 µM	> 100 µM	> 100 µM	> 100 µM
O=c1[nH]c2ccccc2c2oc(-c3ccccc3)nc12	> 100 µM	> 100 µM	> 100 µM	43.4 µM	71.9 µM	> 100 µM	80.8 µM	> 100 µM	56.1 µM	> 100 µM
CN(C)CCn1c(=O)c2ccc3c4c(nn3CCN(C)C)c3ccccc3n(c1=O)c24	2.49 µM	0.329 µM	9.91 µM	1.59 µM	12.5 µM	1.71 µM	3.75 µM	1.34 µM	0.961 µM	2.63 µM
CCOc1cc(C2SCC(=O)N2c2nc3cc4sc(N5C(=O)CSC5c5ccc(O)c(OCC)c5)nc4cc3s2)ccc1O (stereo not given)	> 100 µM	> 100 µM	> 100 µM	> 100 µM	> 100 µM	> 100 µM	> 100 µM	> 100 µM	> 100 µM	> 100 µM
CCOC(=O)C(=Cn1c(=S)[nH]c2ccc([N+](=O)[O-])cc21)C(=O)OCC	> 100 µM	> 100 µM	> 100 µM	> 100 µM	> 100 µM	> 100 µM	> 100 µM	> 100 µM	> 100 µM	> 100 µM
CCCCCCCCC/C=C1\CC(CO)(COC(=O)c2ccccc2)OC1=O (stereo not given)	> 100 µM	33.4 µM	57.2 µM	49.7 µM	40.2 µM	> 100 µM	40.2 µM	79.4 µM	39.8 µM	43.1 µM
C[C@H](CCC1=NCCN1)[C@H]1CC[C@H]2[C@@H]3CC[C@@H]4C[C@H](O)CC[C@]4(C)[C@H]3C[C@H](O)[C@]12C	21 µM	19.3 µM	24.1 µM	34 µM	27.8 µM	33.6 µM	21 µM	26.3 µM	33 µM	24.5 µM
CCOC(=O)C(C)c1nc2cc(N3CCN(C)CC3)c(F)cc2[nH]c1=O (stereo not given)	> 100 µM	> 100 µM	> 100 µM	> 100 µM	> 100 µM	> 100 µM	> 100 µM	> 100 µM	> 100 µM	> 100 µM
COc1ccc(C2(C3c4cc(OC)c(OC)cc4CCN3C)SCCCS2)cc1O (stereo not given)	> 100 µM	> 100 µM	> 100 µM	> 100 µM	> 100 µM	> 100 µM	> 100 µM	> 100 µM	> 100 µM	> 100 µM
O=C(OCc1ccccc1)N1c2cc([N+](=O)[O-])ccc2C(=O)N2CCC[C@H]2C1O (stereo not given in full)	> 100 µM	> 100 µM	> 100 µM	> 100 µM	> 100 µM	> 100 µM	> 100 µM	> 100 µM	> 100 µM	> 100 µM
CS(=O)(=O)O.[Ag]	4.96 µM	4.52 µM	89.8 µM	38.7 µM	> 100 µM	9.43 µM	78.7 µM	31.8 µM	29.9 µM	88.5 µM
CN(c1ccccc1Cl)S(=O)(=O)c1ccccc1[N+](=O)[O-]	> 100 µM	> 100 µM	> 100 µM	> 100 µM	> 100 µM	> 100 µM	> 100 µM	> 100 µM	> 100 µM	> 100 µM
CCC(C)C1(O)OC2CC3(C)OC(=CC3=O)/C(C)=C\C3OC(=O)C1(C)C32 (stereo not given)	> 100 µM	14.3 µM	24.7 µM	28.6 µM	> 100 µM	> 100 µM	77.5 µM	35.3 µM	81.8 µM	42.6 µM
O=C1C(N=Nc2ccc(-c3nc4ccccc4[nH]3)cc2)NC(=S)N1c1ccccc1 (stereo not given)	35.8 µM	> 100 µM	37.5 µM	> 100 µM	> 100 µM	> 100 µM	> 100 µM	> 100 µM	39 µM	> 100 µM
CC(=O)NC1=C(C)C(=O)c2c(nc3n2CC[C@H]3OC(C)=O)C1=O	> 100 µM	3.73 µM	3.52 µM	3.17 µM	9.21 µM	3 µM	10.8 µM	3.77 µM	4.32 µM	1.4 µM
